Literature values, collected in US20240339215A1, “SYSTEM AND METHOD FOR DRUG SELECTION” (Board of Regents, The University of Texas System, priority 2023, published 2024).
Read-outs that look alike come from different tables or passages of the source.

Tested on: breast cancer cell lines

Measured: synergistic effect of combination

Cc1cc([C@@H](C)Nc2ccccc2C(=O)O)c2nc(N3CCOCC3)cc(=O)n2c1 [AZD6482]
synergistic effects: combined with Linsitinib | combined with MK-1775 (Adavosertib) | combined with Sapitinib | combined with Vorinostat
